# *1 amine or outer side, *2 acyl side, *3 side chain or, on linkers, in order; H or OH if unused. Where a SMILES comes first, the peptide text is derived from it. [ ]: non-standard residue; d: D form. Trp(βS-Me,4-F) = C[C@@H](c1c[nH]c2cccc(F)c12)[C@H](N)C(=O)O; Bip(4'-COOH) = N[C@@H](Cc1ccc(-c2ccc(C(=O)O)cc2)cc1)C(=O)O; X2 = O=C(O)c1ccc(-c2ccc(C[C@H](N[*:1])C(=O)[*:2])cn2)cc1; X1 = CC(=O)N1CCN(c2ccc(C[C@H](N[*:1])C(=O)[*:2])cn2)CC1; 1Nal(3S-Me) = C[C@@H](c1cccc2ccccc12)[C@H](N)C(=O)O; X12 = CC(=O)NCCOc1ccc(C[C@H](N[*:1])C(=O)[*:2])cn1; Phe(4-COOH) = N[C@@H](Cc1ccc(C(=O)O)cc1)C(=O)O; h3Pal(5-CN) = N#Cc1cncc(CC[C@H](N)C(=O)O)c1; Pro(4R-NH2) = N[C@H]1CN[C@H](C(=O)O)C1; hTyr = N[C@@H](CCc1ccc(O)cc1)C(=O)O; 4Pal = N[C@@H](Cc1ccncc1)C(=O)O; dDab = NCC[C@@H](N)C(=O)O; dNMeA = CN[C@H](C)C(=O)O; Dap = NC[C@H](N)C(=O)O
# Biological target: T1, Recombinant human IL-1β (Homo sapiens, UniProt P01584)
# T1 construct: purchased BioLegend 579404
# Assay: IL-6 assay in MRC5 cells: inhibition of IL-1β induced IL-6 secretion (AlphaLISA)
# Format: cell-based
# Details: inhibition of IL-1β induced IL-6 secretion in MRC5 cells; IL-1β pre-incubated 1 hour with compound; read-out: MRC5 IC50
# Experimental: Procedure for IL-6 Assay in MRC5 Cells
# The inhibition of IL-1β induced IL-6 secretion was evaluated in MRC5 cells. Recombinant human IL-1β (BioLegend 579404) at 2×EC80 concentration was prepared in seeding medium, EMEM (ATCC 30-2003) with 0.025% BSA (Sigma A9576), 1× penicillin/streptomycin (Gibco 15070-063), 1×NEAA (Gibco 11140-050), 1× GlutaMax (Gibco 35050-061), and 1× sodium pyruvate (Gibco 11360-070). 20 μL of IL-1β was added to a 384-well collagen-coated plate (Corning 354664) and pre-incubated at ambient temperature for 1 hour with 200 nL of compound dispensed using an ECHO 555 liquid handler. Human lung fibroblast MRC5 cells (ATCC CCL-171) were added at a density of 3000 cells/20 μL per well. The cells were prepared by passaging three times in growth medium, EMEM (ATCC 30-2003) with 10% fetal bovine serum (Gibco 16140-071), 1× penicillin/streptomycin (Gibco 15070-063), 1×NEAA (Gibco 11140-050), 1× GlutaMax (Gibco 35050-061), and 1× sodium pyruvate (Gibco 11360-070) in collagen-coated T175 flasks (Greiner 661950) and harvested in seeding medium after 5 minutes of 0.25% trypsin-EDTA (Gibco 25200-056) digestion. The 384-well collagen-coated plate, containing a final volume of 40 μL, was incubated at 37° C., 5% CO2 overnight. 5 μL of the conditioned medium was transferred to a 384-well AlphaLISA plate (PerkinElmer 6005350) for detection of IL-6 using the human AlphaLISA IL-6 kit (PerkinElmer AL223F) as per the manufacturer's protocol. 20 μL of the acceptor bead/biotinylated antibody mix was added to the 384-well AlphaLISA plate and incubated for 1 hour at ambient temperature. The donor bead mix was protected from light and 25 μL was added to the plate and incubated for 30 minutes at ambient temperature. The AlphaLISA plate was read on an EnVision multimode plate reader (Perkin Elmer model 2104) using the AlphaScreen setting (laser exc at 680 nm and emis at 570 nm). Dose response curves and IC50 values were analyzed using a 4-parameter logistic equation in Spotfire software (Tibco, Palo Alto, CA).
# T1 sequence (P01584 117-269): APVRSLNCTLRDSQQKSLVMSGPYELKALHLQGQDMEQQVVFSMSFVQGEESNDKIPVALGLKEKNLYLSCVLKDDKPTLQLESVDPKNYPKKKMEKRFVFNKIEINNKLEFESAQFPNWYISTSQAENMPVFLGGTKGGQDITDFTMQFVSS
row,IC50 [nM],SMILES
1,0.0365,CC(=O)N1CCN(c2ccc(C[C@@H]3NC(=O)[C@H](CCc4cncc(C#N)c4)NC(=O)[C@@H](C)NC(=O)[C@H](CN)NC(=O)[C@H](Cc4ccncc4)NC(=O)[C@H](Cc4ccc(-c5ccc(C(=O)O)cc5)cc4)NC(=O)CNC(=O)[C@@H](C)N(C)C(=O)[C@H](CC(=O)O)NC(=O)[C@H]([C@@H](C)c4cccc5ccccc45)NC(=O)[C@@H]4C[C@@H](N)CN4C(=O)CNC(=O)[C@H](Cc4ccc(C(=O)O)cc4)NC(=O)[C@H](Cc4c[nH]c5ccccc45)NC3=O)cn2)CC1 [Example 1] (cyclo([X1]W[Phe(4-COOH)]G[Pro(4R-NH2)][1Nal(3S-Me)]D[dNMeA]G[Bip(4'-COOH)][4Pal][Dap][dA][h3Pal(5-CN)]))
2,0.0217,CC(=O)N1CCN(c2ccc(C[C@@H]3NC(=O)[C@H](CCc4cncc(C#N)c4)NC(=O)[C@@H](C)NC(=O)[C@H](CC(C)C)NC(=O)[C@H](CCCCN)NC(=O)[C@H](Cc4ccc(-c5ccc(C(=O)O)cc5)cc4)NC(=O)CNC(=O)[C@@H](C)N(C)C(=O)[C@H](CC(=O)O)NC(=O)[C@H]([C@@H](C)c4cccc5ccccc45)NC(=O)[C@@H]4C[C@@H](N)CN4C(=O)CNC(=O)[C@H](Cc4ccc(C(=O)O)cc4)NC(=O)[C@H](Cc4c[nH]c5ccccc45)NC3=O)cn2)CC1 [Example 2] (cyclo([X1]W[Phe(4-COOH)]G[Pro(4R-NH2)][1Nal(3S-Me)]D[dNMeA]G[Bip(4'-COOH)]KL[dA][h3Pal(5-CN)]))
3,0.0599,CC(=O)N1CCN(c2ccc(C[C@@H]3NC(=O)[C@H](CCc4ccc(O)cc4)NC(=O)[C@@H](C)NC(=O)[C@H](CC(C)C)NC(=O)[C@H](CCCCN)NC(=O)[C@H](Cc4ccc(-c5ccc(C(=O)O)cc5)cc4)NC(=O)CNC(=O)[C@@H](C)N(C)C(=O)[C@H](CC(=O)O)NC(=O)[C@H]([C@@H](C)c4cccc5ccccc45)NC(=O)[C@@H]4C[C@@H](N)CN4C(=O)CNC(=O)[C@H](Cc4ccc(C(=O)O)cc4)NC(=O)[C@H](Cc4c[nH]c5ccccc45)NC3=O)cn2)CC1 [Example 3] (cyclo([X1]W[Phe(4-COOH)]G[Pro(4R-NH2)][1Nal(3S-Me)]D[dNMeA]G[Bip(4'-COOH)]KL[dA][hTyr]))
4,0.0438,CC(=O)N1CCN(c2ccc(C[C@@H]3NC(=O)[C@H](CCc4cncc(C#N)c4)NC(=O)[C@@H](C)NC(=O)[C@H](CN)NC(=O)[C@H](Cc4c[nH]c5ccccc45)NC(=O)[C@H](Cc4ccc(-c5ccc(C(=O)O)cc5)cc4)NC(=O)CNC(=O)[C@@H](C)N(C)C(=O)[C@H](CC(=O)O)NC(=O)[C@H]([C@@H](C)c4cccc5ccccc45)NC(=O)[C@@H]4C[C@@H](N)CN4C(=O)CNC(=O)[C@H](Cc4ccc(C(=O)O)cc4)NC(=O)[C@H](Cc4c[nH]c5ccccc45)NC3=O)cn2)CC1 [Example 4] (cyclo([X1]W[Phe(4-COOH)]G[Pro(4R-NH2)][1Nal(3S-Me)]D[dNMeA]G[Bip(4'-COOH)]W[Dap][dA][h3Pal(5-CN)]))
5,0.674,CC(=O)N1CCN(c2ccc(C[C@@H]3NC(=O)[C@H](CCc4ccc(O)cc4)NC(=O)[C@@H](C)NC(=O)[C@H](CN)NC(=O)[C@H](Cc4c[nH]c5ccccc45)NC(=O)[C@H](Cc4ccc(-c5ccc(C(=O)O)cc5)cc4)NC(=O)CNC(=O)[C@@H](C)N(C)C(=O)[C@H](CC(=O)O)NC(=O)[C@H]([C@@H](C)c4cccc5ccccc45)NC(=O)[C@@H]4C[C@@H](N)CN4C(=O)CNC(=O)[C@H](Cc4ccc(C(=O)O)cc4)NC(=O)[C@H](Cc4c[nH]c5ccccc45)NC3=O)cn2)CC1 [Example 5] (cyclo([X1]W[Phe(4-COOH)]G[Pro(4R-NH2)][1Nal(3S-Me)]D[dNMeA]G[Bip(4'-COOH)]W[Dap][dA][hTyr]))
6,0.0666,"CC(=O)N1CCN(c2ccc(C[C@@H]3NC(=O)[C@H](CCc4ccc(O)cc4)NC(=O)[C@@H](C)NC(=O)[C@H](CC(C)C)NC(=O)[C@H](CCCCN)NC(=O)[C@H](Cc4ccc(-c5ccc(C(=O)O)cc5)cc4)NC(=O)CNC(=O)[C@@H](C)N(C)C(=O)[C@H](CC(=O)O)NC(=O)[C@H]([C@@H](C)c4c[nH]c5cccc(F)c45)NC(=O)[C@@H]4C[C@@H](N)CN4C(=O)CNC(=O)[C@H](Cc4ccc(C(=O)O)cc4)NC(=O)[C@H](Cc4c[nH]c5ccccc45)NC3=O)cn2)CC1 [Example 6] (cyclo([X1]W[Phe(4-COOH)]G[Pro(4R-NH2)][Trp(βS-Me,4-F)]D[dNMeA]G[Bip(4'-COOH)]KL[dA][hTyr]))"
7,0.135,"CC(=O)N1CCN(c2ccc(C[C@@H]3NC(=O)[C@H](CCc4ccc(O)cc4)NC(=O)[C@@H](CCN)NC(=O)[C@H](CC(C)C)NC(=O)[C@H](CCCCN)NC(=O)[C@H](Cc4ccc(-c5ccc(C(=O)O)cc5)cc4)NC(=O)CNC(=O)[C@@H](C)N(C)C(=O)[C@H](CC(=O)O)NC(=O)[C@H]([C@@H](C)c4c[nH]c5cccc(F)c45)NC(=O)[C@@H]4C[C@@H](N)CN4C(=O)CNC(=O)[C@H](Cc4ccc(C(=O)O)cc4)NC(=O)[C@H](Cc4c[nH]c5ccccc45)NC3=O)cn2)CC1 [Example 7] (cyclo([X1]W[Phe(4-COOH)]G[Pro(4R-NH2)][Trp(βS-Me,4-F)]D[dNMeA]G[Bip(4'-COOH)]KL[dDab][hTyr]))"
8,0.14,"CC(=O)N1CCN(c2ccc(C[C@@H]3NC(=O)[C@H](CCc4ccc(O)cc4)NC(=O)[C@@H](CCN)NC(=O)CNC(=O)[C@H](Cc4c[nH]c5ccccc45)NC(=O)[C@H](Cc4ccc(-c5ccc(C(=O)O)cc5)cc4)NC(=O)CNC(=O)[C@@H](C)N(C)C(=O)[C@H](CC(=O)O)NC(=O)[C@H]([C@@H](C)c4c[nH]c5cccc(F)c45)NC(=O)[C@@H]4C[C@@H](N)CN4C(=O)CNC(=O)[C@H](Cc4ccc(C(=O)O)cc4)NC(=O)[C@H](Cc4c[nH]c5ccccc45)NC3=O)cn2)CC1 [Example 8] (cyclo([X1]W[Phe(4-COOH)]G[Pro(4R-NH2)][Trp(βS-Me,4-F)]D[dNMeA]G[Bip(4'-COOH)]WG[dDab][hTyr]))"
9,0.118,"CC(=O)NCCOc1ccc(C[C@@H]2NC(=O)[C@H](CCc3ccc(O)cc3)NC(=O)[C@@H](C)NC(=O)[C@H](CC(C)C)NC(=O)[C@H](CCCCN)NC(=O)[C@H](Cc3ccc(-c4ccc(C(=O)O)cc4)cc3)NC(=O)CNC(=O)[C@@H](C)N(C)C(=O)[C@H](CC(=O)O)NC(=O)[C@H]([C@@H](C)c3c[nH]c4cccc(F)c34)NC(=O)[C@@H]3C[C@@H](N)CN3C(=O)CNC(=O)[C@H](Cc3ccc(C(=O)O)cc3)NC(=O)[C@H](Cc3c[nH]c4ccccc34)NC2=O)cn1 [Example 9] (cyclo([X12]W[Phe(4-COOH)]G[Pro(4R-NH2)][Trp(βS-Me,4-F)]D[dNMeA]G[Bip(4'-COOH)]KL[dA][hTyr]))"
10,0.256,C[C@@H]1C(=O)NCC(=O)N[C@@H](Cc2ccc(-c3ccc(C(=O)O)cc3)nc2)C(=O)N[C@@H](Cc2c[nH]c3ccccc23)C(=O)N[C@@H](CN)C(=O)N[C@H](C)C(=O)N[C@@H](CCc2ccc(O)cc2)C(=O)N[C@@H](Cc2ccc(-c3ccc(C(=O)O)cc3)nc2)C(=O)N[C@@H](Cc2c[nH]c3ccccc23)C(=O)N[C@@H](Cc2ccc(C(=O)O)cc2)C(=O)NCC(=O)N2C[C@H](N)C[C@H]2C(=O)N[C@@H]([C@@H](C)c2cccc3ccccc23)C(=O)N[C@@H](CC(=O)O)C(=O)N1C [Example 10] (cyclo([X2]W[Phe(4-COOH)]G[Pro(4R-NH2)][1Nal(3S-Me)]D[dNMeA]G[X2]W[Dap][dA][hTyr]))
11,0.0908,C[C@@H]1C(=O)NCC(=O)N[C@@H](Cc2ccc(-c3ccc(C(=O)O)cc3)cc2)C(=O)N[C@@H](Cc2c[nH]c3ccccc23)C(=O)N[C@@H](CN)C(=O)N[C@H](C)C(=O)N[C@@H](CCc2ccc(O)cc2)C(=O)N[C@@H](Cc2ccc(-c3ccc(C(=O)O)cc3)nc2)C(=O)N[C@@H](Cc2c[nH]c3ccccc23)C(=O)N[C@@H](Cc2ccc(C(=O)O)cc2)C(=O)NCC(=O)N2C[C@H](N)C[C@H]2C(=O)N[C@@H]([C@@H](C)c2cccc3ccccc23)C(=O)N[C@@H](CC(=O)O)C(=O)N1C [Example 11] (cyclo([X2]W[Phe(4-COOH)]G[Pro(4R-NH2)][1Nal(3S-Me)]D[dNMeA]G[Bip(4'-COOH)]W[Dap][dA][hTyr]))
12,0.0551,C[C@@H]1C(=O)NCC(=O)N[C@@H](Cc2ccc(-c3ccc(C(=O)O)cc3)nc2)C(=O)N[C@@H](Cc2c[nH]c3ccccc23)C(=O)N[C@@H](CN)C(=O)N[C@H](C)C(=O)N[C@@H](CCc2ccc(O)cc2)C(=O)N[C@@H](Cc2ccc(-c3ccc(C(=O)O)cc3)cc2)C(=O)N[C@@H](Cc2c[nH]c3ccccc23)C(=O)N[C@@H](Cc2ccc(C(=O)O)cc2)C(=O)NCC(=O)N2C[C@H](N)C[C@H]2C(=O)N[C@@H]([C@@H](C)c2cccc3ccccc23)C(=O)N[C@@H](CC(=O)O)C(=O)N1C [Example 12] (cyclo([Bip(4'-COOH)]W[Phe(4-COOH)]G[Pro(4R-NH2)][1Nal(3S-Me)]D[dNMeA]G[X2]W[Dap][dA][hTyr]))
